The subject of the assay is Human immunodeficiency virus 1. Description: Antiviral activity against 10 CCID50 units of HIV1 infected in human C8166 cells at 2.5 ug/mL after 5 to 7 days. Format: functional, organism-based.

Structures are written as SMILES. The source made the active and inactive calls. No cut-off for these calls is given here.

As to `CC1(C)CCC[C@]2(C)[C@H]3CC[C@@](O)(CO)[C@H](CC(O)C4=CC(=O)OC4OC(=O)/C=C/c4ccccc4)[C@]3(C)CC[C@@H]12` (some centres undefined), the result was inactive.

As for `CC(=O)OC[C@]1(O)CC[C@@H]2[C@@]3(C)CCCC(C)(C)[C@@H]3CC[C@@]2(C)[C@H]1CC(O)C1=CC(=O)OC1OC(C)=O` (some centres undefined), the result was inactive.

Regarding `CC(=O)OC[C@]1(O)CC[C@@H]2[C@@]3(C)CCCC(C)(C)[C@@H]3CC[C@@]2(C)[C@H]1CC(O)C1=CC(=O)OC1OC(=O)/C=C/c1ccccc1` (some centres undefined), the outcome was inactive.

As for `CC(=O)OC1OC(=O)C=C1C(O)C[C@H]1[C@](O)(CO)CC[C@@H]2[C@@]3(C)CCCC(C)(C)[C@@H]3CC[C@]21C` (some centres undefined), the outcome was inactive.

The record behind these values is ChEMBL document CHEMBL1158190, “New Tetracyclic Sesterterpenes from Cydonia vulgaris” (J Nat Prod, 1996).
